Laboratory results published in patent US9664676B2, “RNA sequences that induce fluorescence of small molecule fluorophores” (Cornell University, priority 2013, dated 2017).

How the values were obtained:
E. coli = assay: Fluorescence measurements of E. coli (colonies, suspensions) expressing aptamers with DFHBI-1T; type: cell-based, Escherichia coli
Description: Fluorescence Measurements of E. coli: Fluorescence measurements of E. coli were done in two general ways. To assess fluorescence brightness of bacterial colonies on a plate Acella or LMG194 strains cells were transferred to a new LB/agar dish with respective antibiotic and allowed to grow overnight at 37° C. Typically four to six colonies for the same aptamer were grown on the same plate to provide statistical data. These plates already contained 40 μM DFHBI-1T (or DFHBI) and 0.2% arabinose (in case of LMG194 strain). When Acella strain was used, 1 mM IPTG was added the next morning and incubation was continued for four to six hours more at 37° C. Bacterial colonies were then imaged under ChemiDoc MP imager as described above and images were processed in ImageJ program.
To measure fluorescence of bacterial cell suspensions BL21 Star (DE3) (Life Technologies) strain and pET28c-based expression plasmids were used. This combination provided the strongest signal. Fresh colony was inoculated into LB media with kanamycin and allowed to grow overnight at 37° C. to OD600 0.4. The cells were then induced with addition of 1 mM IPTG for 2-4 h at 37° C. After induction, cells were normalized for cell density and incubated with 400 μM DFHBI-1T. Cells were then measured for total fluorescence using a Genios Pro plate reader at 465 nm excitation and 535 nm emission. All values were normalized for slightly different excitation and emission spectra of Spinach2 and Broccoli.

[1] = Folding measurements with DFHBI-1T; type: physicochemical; details: for percent folded: in vitro folding assay
Description: Briefly, fluorescence intensity of two solutions were compared: the one having excess of the dye and limiting amount of RNA and the other with excess of RNA and limiting amount of the dye. 1 μM of 1T (or RNA) and 20 μM of RNA (or 1T) was used. Signal from the first condition (limiting RNA) was divided by the signal from the second condition (limiting dye) to determine the fraction folded. To measure folding in a context of different flanking sequences RNA was generated from separate dsDNA fragments. These fragments were PCR amplified to have β-actin, 5S rRNA and 7SK RNA sequences on either or both sides of Broccoli. The folding assay then proceeded as described above.
(§1) To measure the fluorescence of aptamer-fluorophore complexes, an approach that overcomes potential confounding effects of incomplete RNA folding was used. The fluorescence of RNA-fluorophore complexes can be measured in either of two ways: using “excess RNA” or “excess fluorophore” (Ponchon et al., “Recombinant RNA Technology: the tRNA Scaffold,” Nat. Methods 4(7): 571-6 (2007), which is hereby incorporated by reference in its entirety). In an “excess RNA” experiment enough RNA was added to ensure that all the fluorophore (e.g. 1 μM) is bound to the RNA even if a sizeable portion of the RNA is unfolded. As a result, one can be confident that a 1 μM RNA-fluorophore complex is present, and one can therefore calculate the “molar brightness,” the fluorescence of a specific concentration of RNA-fluorophore complex independent of RNA folding. In the case of excess fluorophore experimental conditions were reversed and 1 μM of RNA was used with a vast excess of the fluorophore. In this case, the amount of RNA-fluorophore complex is highly dependent on the amount of RNA that is folded.

[2] = In vitro fluorescence activation of DFHBI-1T by 29-1 and truncation mutants; type: biochemical; details: excess RNA conditions
From the text: In Vitro Characterization of Aptamers: dsDNA from the brightest bacterial cells in a library was PCR amplified from eluted plasmids. Truncation, deletion and point mutation mutants were generated from dsDNAs PCR amplified based on respective ssDNA templates (Protein and Nucleic Acid Facility, Stanford University Medical Center). Primers were designed so the PCR product contained T7 promoter sequence. When indicated, dsDNA or ssDNA also contained tRNA scaffold part. PCR products were then purified with PCR purification columns (Qiagen) and in vitro transcribed utilizing AmpliScribe T7-Flash Transcription Kit (Epicenter). RNA was purified using Bio-Spin columns (Bio-Rad), and quantified using both absorbance values and the Quant-iT RiboGreen RNA Assay Kit (Life Technologies).
All in vitro RNA properties were measured in 40 mM HEPES pH 7.4, 100 mM KCl, 1 mM MgCl2 buffer unless specified separately. All values presented are averaging of at least three independent experiments, error bars are standard deviations.
as §1

HEK293T cells = assay: Flow cytometry of HEK293T cells expressing 5S rRNA-aptamer fusions with DFHBI-1T; type: cell-based; details: flow cytometry
Description: FIG. 24 illustrates the quantification of the flow cytometry analysis of aptamers expression in mammalian cells. To compare specific aptamers' brightness in mammalian cells, HEK293T cells were transfected with two plasmids: one expressing aptamer (with or without tRNA) fused to 5S rRNA and another expressing mCherry fluorescent protein. Cells were then treated with 40 μM DFHBI-1T and analyzed on FACSAria III instrument in two channels: green (ex=488 nm; em=525±50 nm) and red (ex=561 nm and em=610±20). For quantification, mean fluorescent signal of the non-negative population was calculated and then mean fluorescent signal of the negative population was subtracted from it to assess specific, not background fluorescent signal. Finally, this number was multiplied by the percentage of the non-negative population to provide the total fluorescent signal of the non-negative population. These numbers are plotted on the bar graph above. Where indicated, cells were also pre-treated with 5 mM MgSO4. Error bar indicates robust SD calculated by FlowJo program, used for data analysis.
Imaging 5S-tBroccoli and 5S-t-tdBroccoli: Plasmids were transfected into HEK293T cell using FuGENE HD reagent (Promega) following manufacture's protocol. Cell imaging was carried out as previously described for 5S-Spinach (Paige et al., “RNA Mimics of Green Fluorescent Protein,” Science 333(6042): 642-6 (2011), which is hereby incorporated by reference in its entirety) with DFHBI-1T instead of DFHBI. […]
Flow cytometry was used to quantify average brightness of tRNA. Transfected cells were analyzed in two channels: green (ex=488 nm; em=525±50 nm) and red (ex=561 nm; em=610±20). […] As evidenced from FIG. 14A, 5S-tBroccoli and 5S-tdBroccoli are clearly detectable in the green fluorescence channel and this specific signal appears only upon cells treatment with DFHBI-1T (FIG. 23).

[3] = Magnesium dependence of aptamer fluorescence; type: physicochemical; details: MgCl2 titration
Description: To measure magnesium dependence 1 μM RNA was incubated with 10 μM 1T in 40 mM HEPES pH 7.4, 100 mM KCl buffer with different concentrations of MgCl2 and then fluorescence emission was measured on a plate reader.

Row | Molecule | colony fluorescence compared to 29-1 (E. coli; E. coli colonies on LB-DFHBI-1T agar, tRNA scaffold) | percent folded [1] [%] | ability to induce DFHBI-1T fluorescence [2] | ability to induce DFHBI-1T fluorescence ([2]; listed as T2) | fluorescence of aptamer-expressing E. coli cells (E. coli; tRNA fusions, suspension/plate reader, DFHBI-1T) | detection in HEK293T cells of 5S fusions without tRNA scaffold (HEK293T cells) | folding relative to 29-1 ([1]; in vitro) [%] | magnesium concentration giving maximal fluorescence [3] [µM] | increase of E. coli fluorescence with 20 mM MgCl2 (E. coli; LB media with versus without 20 mM MgCl2, after 1 hr) [%]
1 | 29-1-T2: 56-nucleotide truncation of 29-1, SEQ ID NO: 4 (GAGACGGUCGGGUCCAGCACAAAAAUGUUGCUGUUGAGUAGAGUGUGGGCUC; listed as RNA, chemistry not given here) | significantly less bright than colonies expressing 29-1 | 45 | retained the ability to induce DFHBI-1T fluorescence | able to induce fluorescence of DFHBI-1T | – | – | – | – | –
2 | Broccoli: 49 nt RNA aptamer, SEQ ID NO: 75; 29-1-3-1 designated Broccoli (GAGACGGUCGGGUCCAGAUAUUCGUAUCUGUCGAGUAGAGUGUGGGCUC; further chemistry not given here) | – | – | – | – | more than twice as fluorescent as Spinach2-expressing cells | can be detected in cells | 80 | ~300 | –
3 | tBroccoli: Broccoli with tRNA scaffold, SEQ ID NO: 38 (nucleic acid, chemistry not given here) GCCCGGATAGCTCAGTCGGTAGAGCAGCGGAGACGGTCGGGTCCAGATATTCGTATCTGTCGAGTAGAGTGTGGGCTCCGCGGGTCCAGGGTTCAAGTCCCTGTTCGGGCGCCA | – | ~60 | – | – | – | – | – | – | 36
